Columns and labels:
[1] = Peroxide value (PV), spectrophotometric ferric thiocyanate method, after storage in open glass; assay type: physicochemical
Description: The present invention also contemplates stabilization of the CLA acylglycerides by preventing oxidation of the compounds. The present invention is not limited to any one mechanism. Indeed, an understanding of the mechanism of the invention is not necessary to produce the composition or perform the methods of the present invention. […] After storage in open glass, the PV of CLA was 32; in comparison, the value for linoleic acid was 370.

[2] = system: rat mammary tumorigenesis; conditions: administration of CLA; cited from earlier work
[3] = CLA incorporated into animal feed; cited from earlier work
[4] = diet containing 0.5 percent CLA, cited from earlier work
[5] = system: human melanoma, colorectal and breast cancer cells; conditions: in vitro; cited from earlier work
[6] = system: CD-4 and CD-8 lymphocyte subpopulations; conditions: oral or parenteral, free acid or salt form; cited from earlier work

Row | Molecule | peroxide value (PV) [1] | effect on rat mammary tumorigenesis [2] | efficiency of feed conversion [3] | body weight [4] | fat content ([4]; pigs, mice, humans) | protein mass ([4]; pigs, mice, humans) | cytotoxicity [5] | CD-4 and CD-8 lymphocyte subpopulations [6]
1 | CCCCC/C=C\C/C=C\CCCCCCCC(=O)O [linoleic acid, reference compound] | 370 | – | – | – | – | – | – | –
2 | conjugated linoleic acid [CLA] | 32 | inhibits rat mammary tumorigenesis | increased the efficiency of feed conversion | no increase | significant drop | concomitant increase | strong cytotoxic agent | elevation
